Reference: patent US12396949B2, “Technology for improving properties of lipid nanoparticles using lipids in which cis-unsaturated bonds are substituted with a silicon atom” (The Regents of the University of California, priority 2022, dated 2025)
“And” between values parts separate entries of the source, which are not always exact repeats. Equal entries are not always repeated.

Key:
Type in all cases: physicochemical
[1] = Liposome zeta potential, dynamic light scattering (silyl-DOTAP liposomes); details: three liposome solutions, 1 mg/mL in Milli Q water, DLS
Description: (§1) FIGS. 8A, 8B, and 8C show the measured size, zeta potential, and RNA encapsulation efficiency (EE) of lipid nanoparticles (LNPs) containing silyl-DOTAP lipids, compared with traditional DOTAP-derived LNPs. The data in FIG. 8A were obtained from three liposome solutions, whereupon the average size was determined using dynamic light scattering (DLS). The data in FIG. 8B were obtained from three liposome solutions, whereupon the average zeta potential was determined using dynamic light scattering (DLS). The data in FIG. 8C represent RNA encapsulation efficiency, determined for each lipid using the Quant-It RiboGreen fluorescence assay.
(§2) FIGS. 8A, 8B, and 8C provide an analysis of size, zeta potential, and RNA encapsulation efficiency (EE) of lipid nanoparticles (LNPs) composed of silyl-DOTAP lipids, compared with traditional DOTAP-derived LNPs. The data in FIG. 8A were obtained from three liposome solutions (1 mg/mL in Milli Q water) for each lipid, which were formed via thin film hydration/bath sonication and the average size by intensity was determined using dynamic light scattering (DLS). The data in FIG. 8B were obtained from three liposome solutions (1 mg/mL in Milli Q water) for each lipid, which were formed via thin film hydration/bath sonication and the average zeta potential was determined using dynamic light scattering (DLS).
(§3) The values shown are the average standard deviation size by intensity, zeta potential, and RNA EE shown in FIGS. 8A to 8C for each lipid. Footnotes: a: One trial corresponds to one liposome solution (1 mg/ml). […] DOTAP is 198 nm and 8SiPh is 183±65 nm when excluding this large aggregate/outlier.

RNA standard = experiment: RNA encapsulation efficiency, Quant-It RiboGreen fluorescence assay; details: for RNA EE (RNA encapsulation efficiency): RNA-lipid complex 10:1 wt/wt lipid/RNA, 15 min room temperature, three aliquots; for RNA EE compared with DOTAP: comparison in words
Description: as §1
The data in FIG. 8C represent RNA encapsulation efficiency. One RNA-lipid complex solution (10:1 wt/wt lipid/RNA) was formed for each lipid by incubating the silyl liposomes with RNA standard at room temperature for fifteen minutes. The average RNA EE of three aliquots of RNA-lipid complex solution was determined for each lipid using the Quant-It RiboGreen fluorescence assay.
as §3

[2] = Liposome size by intensity, dynamic light scattering (silyl-DOTAP liposomes); details: for size (size by intensity, average ± standard deviation): three liposome solutions, thin film hydration/bath sonication, all trials; for size (size by intensity, average ± standard deviation) / size by intensity when excluding large aggregate/outlier: 1 mg/mL in Milli Q water; for size (size by intensity, average ± standard deviation) / size by intensity when excluding large aggregate/outlier / large aggregate/outlier in size by intensity distribution of one trial: DLS; for average LNP size compared with DOTAP: comparison in words; for size by intensity when excluding large aggregate/outlier: outlier trial peak excluded; for large aggregate/outlier in size by intensity distribution of one trial: one of three trials
Description: as §1, §2, §3

[3] = Average zeta potential of liposomes made from cationic silyl lipids (Tables 1A, 1B)
Source text: (§4) For colloidal dispersions, zeta potential is a useful measurement of the difference in electrokinetic potential between the dispersion medium and the stationary layer of fluid attached to the dispersed particle. The magnitude of the zeta potential indicates the degree of electrostatic repulsion between adjacent, similarly charged particles in a dispersion. A high zeta potential is an indicator of stability (resistance to aggregation). Both zeta potential and size can be determined using a zeta Potential Analyzer. Clogston J D et al., Methods Mol Biol. 2011; 697:63-70.
(§5) FIGS. 5A to 5C and TABLE 1A provide an illustration of such empirical determination: the effect of the length of the lipid tail, the end group, and the positioning of the silyl group. In this illustration, other properties of the lipid structure and liposome composition were kept constant. The liposome formulations just contained the cationic silyl lipids indicated, and Milli Q™ purified water.
(§6) FIGS. 7A to 7C and TABLE 1B provide another illustration of how structure of the silyl lipid can affect properties of nanoparticles.
(§7) Structural features such as tail length, positioning of the silicon group (n1, n2), and branching (as in 8,Si, (8)3-DOTMA) can influence liposome properties.

[4] = Average size of liposomes made from cationic silyl lipids (Tables 1A, 1B); details: for Avg size: Table 1B, sila-DOTMA analog liposomes; for Avg. Size: Table 1A, liposome formulations of the cationic silyl lipid only in Milli Q purified water
Source text: as §4, §5, §6, §7

[5] = Table 1B, sila-DOTMA analog liposomes, two values given
[6] = Table 1A, liposome formulations of the cationic silyl lipid only in Milli Q purified water

zeta (average zeta potential ± standard deviation) [1]	RNA EE (RNA encapsulation efficiency) (RNA standard)	size (size by intensity, average ± standard deviation) [2]	SMILES	also measured
76 ± 2 mV	55 ± 4%	198 nm	C[N+](C)(C)CC(COC(=O)CCCC[Si](C)(C)CCc1ccccc1)OC(=O)CCCC[Si](C)(C)CCc1ccccc1 (stereo not shown) [5Si2Ph]	–
78 ± 3 mV	55 ± 3%	208 ± 19 nm	C[N+](C)(C)CC(COC(=O)CCCC[Si](C)(C)CCCc1ccccc1)OC(=O)CCCC[Si](C)(C)CCCc1ccccc1 (stereo not shown) [5Si3Ph]	–
63 ± 14 mV	74 ± 6%	171 ± 26 nm	CCCCCCCC[Si](C)(C)CCCCC(=O)OCC(C[N+](C)(C)C)OC(=O)CCCC[Si](C)(C)CCCCCCCC (stereo not shown) [5Si8]	RNA EE compared with DOTAP (RNA standard): higher EE than DOTAP
0 mV and 0 ± 0.05 mV	–	225 ± 24 nm	CCCCCCCCCCC[Si](C)(C)CCCCC(=O)OCC(C[N+](C)(C)C)OC(=O)CCCC[Si](C)(C)CCCCCCCCCCC (stereo not shown) [5Si11]	RNA EE compared with DOTAP (RNA standard): comparable RNA EEs to DOTAP
88 ± 5 mV	85 ± 4%	169 ± 1 nm	C[N+](C)(C)CC(COC(=O)CCCC[Si](C)(C)C1CCCCC1)OC(=O)CCCC[Si](C)(C)C1CCCCC1 (stereo not shown) [5SiCy]	RNA EE compared with DOTAP (RNA standard): higher EE than DOTAP
77 ± 6 mV	88 ± 9%	226 ± 75 nm	C[N+](C)(C)CC(COC(=O)CCCC[Si](C)(C)c1ccccc1)OC(=O)CCCC[Si](C)(C)c1ccccc1 (stereo not shown) [5SiPh]	RNA EE compared with DOTAP (RNA standard): higher EE than DOTAP
–	–	–	CCCC[Si](C)(C)CCCCCCOCC(C[N+](C)(C)C)OCCCCCC[Si](C)(C)CCCC (stereo not shown) [6, Si, 4-DOTMA]	Avg. zeta Potential [3, 5]: 65 mV; Avg size [4]: 79 nm
–	–	–	CCCCCCCC[Si](C)(C)CCCCCCOCC(C[N+](C)(C)C)OCCCCCC[Si](C)(C)CCCCCCCC (stereo not shown) [6, Si, 8-DOTMA]	Avg. zeta Potential [3, 5]: 64 mV; Avg size [4]: 216 nm
91 ± 9 mV	41 ± 6%	372 ± 93 nm	CCCC[Si](C)(C)CCCCCC(=O)OCC(C[N+](C)(C)C)OC(=O)CCCCC[Si](C)(C)CCCC (stereo not shown) [6Si4]	average LNP size compared with DOTAP [2]: noticeably larger average sizes than DOTAP
77 ± 5 mV	23 ± 0.2%	188 ± 16 nm	C[N+](C)(C)CC(COC(=O)CCCCC[Si](C)(C)C1CCCCC1)OC(=O)CCCCC[Si](C)(C)C1CCCCC1 (stereo not shown) [6SiCy]	–
81 ± 3 mV	76 ± 1%	448 ± 110 nm	C[N+](C)(C)CC(COC(=O)CCCCC[Si](C)(C)c1ccccc1)OC(=O)CCCCC[Si](C)(C)c1ccccc1 (stereo not shown) [6SiPh]	RNA EE compared with DOTAP (RNA standard): higher EE than DOTAP; average LNP size compared with DOTAP [2]: noticeably larger average sizes than DOTAP
73 ± 4 mV	59 ± 1%	221 ± 40 nm	CCCCCCCCC[Si](C)(C)CCCCCCC(=O)OCC(C[N+](C)(C)C)OC(=O)CCCCCC[Si](C)(C)CCCCCCCCC (stereo not shown) [7Si9]	–
–	–	–	CCCCCCCC[Si](C)(C)CCCCCCCCOCC(C[N+](C)(C)C)OCCCCCCCC[Si](C)(C)CCCCCCCC (stereo not shown) [8, Si, 8-DOTMA]	Avg. zeta Potential [3, 5]: 56 mV and 74 mV; Avg size [4]: 206 nm
–	–	–	CCCCCCCC[Si](CCCCCCCC)(CCCCCCCC)CCCCCCCCOCC(C[N+](C)(C)C)OCCCCCCCC[Si](CCCCCCCC)(CCCCCCCC)CCCCCCCC (stereo not shown) [8, Si, (8)3-DOTMA]	Avg. zeta Potential [3, 5]: 64 mV; Avg size [4]: 184 nm
–	–	–	C[N+](C)(C)CC(COCCCCCCCC[Si](C)(C)c1ccccc1)OCCCCCCCC[Si](C)(C)c1ccccc1 (stereo not shown) [8, Si, Ph-DOTMA]	Avg. zeta Potential [3, 5]: 62 mV; Avg size [4]: 215 nm
61 ± 12 mV	56 ± 10%	275 ± 82 nm	C[N+](C)(C)CC(COC(=O)CCCCCCC[Si](C)(C)CCc1ccccc1)OC(=O)CCCCCCC[Si](C)(C)CCc1ccccc1 (stereo not shown) [8Si2Ph]	–
91 ± 6 mV	53 ± 8%	106 ± 35 nm	C[N+](C)(C)CC(COC(=O)CCCCCCC[Si](C)(C)CCCc1ccccc1)OC(=O)CCCCCCC[Si](C)(C)CCCc1ccccc1 (stereo not shown) [8Si3Ph]	–
70 ± 2 mV	44 ± 7%	198 nm	CCCC[Si](C)(C)CCCCCCCC(=O)OCC(C[N+](C)(C)C)OC(=O)CCCCCCC[Si](C)(C)CCCC (stereo not shown) [8Si4]	–
84 ± 5 mV	48 ± 1%	164 ± 36 nm	CCCCCC[Si](C)(C)CCCCCCCC(=O)OCC(C[N+](C)(C)C)OC(=O)CCCCCCC[Si](C)(C)CCCCCC (stereo not shown) [8Si6]	–
73 ± 15 mV	50 ± 7%	221 ± 40 nm	CCCCCCCC[Si](C)(C)CCCCCCCC(=O)OCC(C[N+](C)(C)C)OC(=O)CCCCCCC[Si](C)(C)CCCCCCCC (stereo not shown) [8Si8]	RNA EE compared with DOTAP (RNA standard): comparable RNA EEs to DOTAP
70 ± 3 mV	49 ± 4%	199 ± 30 nm	C[N+](C)(C)CC(COC(=O)CCCCCCC[Si](C)(C)C1CCCCC1)OC(=O)CCCCCCC[Si](C)(C)C1CCCCC1 (stereo not shown) [8SiCy]	–
75 ± 6 mV	36 ± 5%	397 ± 322 nm	C[N+](C)(C)CC(COC(=O)CCCCCCC[Si](C)(C)c1ccccc1)OC(=O)CCCCCCC[Si](C)(C)c1ccccc1 (stereo not shown) [8SiPh]	size by intensity when excluding large aggregate/outlier [2]: 183±65 nm; large aggregate/outlier in size by intensity distribution of one trial [2]: 1406 nm
–	–	–	CCCCCC[Si](C)(C)CCCCCCCCCCOCC(C[N+](C)(C)C)OCCCCCCCCCC[Si](C)(C)CCCCCC (stereo not shown) [10, Si, 6-DOTMA]	Avg. zeta Potential [3, 5]: 52 mV; Avg size [4]: 65 nm
34 ± 5 mV	65 ± 2%	314 ± 201 nm	CCCCCCCC/C=C\CCCCCCCC(=O)OCC(C[N+](C)(C)C)OC(=O)CCCCCCC/C=C\CCCCCCCC.[Cl-] (stereo not shown) [DOTAP, N-(1-(2,3-dioleoyloxy)propyl)-N,N,N-trimethylammonium chloride, reference compound]	size by intensity when excluding large aggregate/outlier [2]: 198 nm; large aggregate/outlier in size by intensity distribution of one trial [2]: 838.3 nm
–	–	–	CCCC[Si](C)(C)CCCCC(=O)OCC(C[N+](C)(C)C)OC(=O)CCCC[Si](C)(C)CCCC (stereo not shown) [QP5Si4]	Avg. zeta Potential [3, 6]: 65 mV; Avg. Size [4]: 21 nm
–	–	–	CCCCCCCC[Si](C)(C)CCCCC(=O)OCC(C[N+](C)(C)C)OC(=O)CCCC[Si](C)(C)CCCCCCCC (stereo not shown) [QP5Si8]	Avg. zeta Potential [3, 6]: 69 mV and 112 mV; Avg. Size [4]: 38 nm
–	–	–	CCCCCCCCCCC[Si](C)(C)CCCCC(=O)OCC(C[N+](C)(C)C)OC(=O)CCCC[Si](C)(C)CCCCCCCCCCC (stereo not shown) [QP5Si11]	Avg. zeta Potential [3, 6]: 60 mV; Avg. Size [4]: 59 nm
–	–	–	C[N+](C)(C)CC(COC(=O)CCCC[Si](C)(C)C1CCCCC1)OC(=O)CCCC[Si](C)(C)C1CCCCC1 (stereo not shown) [QP5SiCy]	Avg. zeta Potential [3, 6]: 71 mV and 124 mV; Avg. Size [4]: 80 nm
